{"source": "paper PMC12211128", "about": "“Safety, tolerability, pharmacokinetic and pharmacodynamic effects of the muscarinic M1 positive allosteric modulator VU0467319 for Alzheimer’s disease: a single ascending-dose study in healthy participants” (Alzheimer's Research & Therapy, 2025)", "key": {"healthy participants [1]": {"system": "healthy participants", "assay": "Clinical laboratory parameters", "format": "in vivo, human", "details": "food effect study, 120 mg; 72 h post-dose, closer to normal by 144 h", "procedure": "Safety and tolerability were assessed throughout the study via treatment emergent adverse event (TEAE) monitoring, vital signs (blood pressure, pulse rate, respiration rate, oral temperature), physical examinations, 12-lead ECGs, and clinical laboratory parameters including complete blood count (CBC), coagulation, hematology, clinical chemistry assessments, and urinalysis. Safety laboratory tests were drawn at pre-dose and at 5, 24, 36 and 144-hours post-dose for 60–400 mg Cohorts; and at 24, 48, 72 and 144-hours post-dose for the 600 mg and Food Effect Cohort. ECG assessments were conducted at pre-dose and at 1, 2, 3, 5, 9, 24, 36 and 144-hours post-dose for 60–400 mg Cohorts; and at 2, 3, 5, 9, 24, 36, 72 and 144-hours post-dose for the 600 mg and Food Effect Cohort. All adverse events (AEs) were assessed by the investigator for severity and relationship to study medication or study procedures."}, "healthy participants [2]": {"system": "healthy participants", "assay": "Incidental visual memory ERP paradigm", "format": "in vivo, human", "details": "for Mean amplitude over the parietal cortex, Incidental Memory task, Novel trials / Mean amplitude over the parietal cortex, Incidental Memory task, Repeat trials: mean (SD)", "procedure": "Following the cognitive battery, an electrophysiology recording was set up. Visual and auditory ERPs were recorded using a 128-channel Geodesic sensor net (EGI, Inc., Eugene, OR; [37, 38]). The electrophysiological recording was sampled at 250 Hz with filters set at 0.1–100 Hz. During data collection, all electrodes were referenced to vertex (Cz). The recording session lasted approximately 30 min.\n(§1) A passive incidental visual memory paradigm (120 trials, 8 min; [38]) was used to evaluate changes in basic memory processes. Participants were asked to view a slide show of novel color photographs depicting complex natural scenes (different sets of images were used at pre-dose vs. post-dose administration test sessions). A small subset (n = 10) of the stimuli was presented repeatedly (× 5 each) throughout the session; the rest (n = 50) were shown once. To encourage attention to the stimulus sequence, 20 attention probes (a yellow smiley face) were presented throughout the test session and required a button press response. The task duration was approximately 7 min.\nERP processing and Analysis: Single-trial ERPs were derived by extracting a 100-ms pre-stimulus baseline and a 900 ms post-stimulus interval. The trials were screened for ocular and motor artifacts using automated procedures with standard threshold settings (NetStation 4.4, EGI, Inc) and verified using manual review. Data for electrodes characterized by consistent artifacts were replaced using the spherical spline interpolation algorithm. If more than 15 electrodes within a trial were noisy, the entire trial was discarded. Remaining artifact-free trials were averaged separately for each condition (standard vs. oddball; novel vs. repeated images), re-referenced to an average reference, and baseline corrected. For individual participant’s data to be included in the analysis, each condition average had to have a minimum of 10 artifact-free trials.\nStatistical analysis focused on a priori selected electrode clusters corresponding to frontal, central, and parietal midline locations (Fz, Cz, Pz in 10–20 notation), confirmed using spatial principal components analysis. Mean amplitudes were calculated within 250–400 ms (frontal P3a), 300–500 ms (parietal P300), and 500–800 ms (parietal P600) temporal windows. These a-priori selected windows were confirmed using temporal principal components analysis.\nAnalyses for the auditory and visual oddball ERPs focused on the parietal (P300) and frontal (P3a) responses to standard and target stimuli. Differences in the amplitude, latency, and scalp topography of the responses were examined. […] For the incidental memory paradigm, differences in the mean amplitude of the parietal P300/P600 responses to repeated vs. novel presentations. The amplitude of the parietal P300/P600 waveform measures stimulus recognition. A larger positive amplitude for repeated compared to novel images indicates spontaneous formation of a memory trace.\nas §1, with “(Key & Dykens, 2014))” for “[38])”, “once. All stimuli were presented in random order for 1500 ms with a random interstimulus interval of 1300-1600 ms.” for “once.”, “minutes.” for “min.”"}, "M1 mAChR": {"system": "M1 mAChR", "details": "cited from earlier work"}, "[3]": {"details": "SAD study, 120mg, Pre-Drug, n = 5"}, "[4]": {"details": "VU319 120 mg, fasting, post-drug session"}, "[5]": {"details": "VU319 120 mg, fasting, pre-drug session"}, "[6]": {"details": "VU319 120 mg, fed, post-drug session"}, "[7]": {"details": "VU319 120 mg, fed, pre-drug session"}}, "note": "Entries after “also recorded” stand apart in the source; their conditions may differ. Marks after values point to notes of the source that are not given here.", "data": [{"smiles": "Cn1cc2c(-c3cc(F)c(CN4Cc5ncccc5C4=O)c(F)c3)cccc2n1", "note": "[VU319]", "values": [{"measurement": "ALT and AST levels", "setting": "healthy participants [1]", "value": "moderate increase in ALT and AST levels reported by one participant"}, {"measurement": "Incidental memory, novel vs repeated images", "setting": "healthy participants [2]; 120 mg, fasted condition, either session, both p > 0.2", "value": "did not show a difference"}, {"measurement": "Incidental memory parietal P300/P600 amplitude, repeated vs novel, effect size d", "setting": "healthy participants [2]; 120 mg, fed condition, p = 0.018", "value": 0.91}, {"measurement": "Incidental memory parietal P300/P600 amplitude, repeated vs novel, effect size d", "setting": "healthy participants [2]; 400 mg, p = 0.098", "value": 0.83}, {"measurement": "Incidental memory parietal P300/P600 amplitude, repeated vs novel, effect size d", "setting": "healthy participants [2]; 600 mg, p = 0.09", "value": 0.86}, {"measurement": "Incidental memory P300/P600 amplitude, repeated vs novel, higher two doses compared to placebo, effect size d", "setting": "healthy participants [2]; 400 and 600 mg", "value": "> 0.8"}, {"measurement": "Mean amplitude over the parietal cortex, Incidental Memory task, Novel trials", "setting": "healthy participants [2]; SAD study, 60 mg, Post-Drug", "value": "0.87 (1.92) µV"}, {"measurement": "Mean amplitude over the parietal cortex, Incidental Memory task, Repeat trials", "setting": "healthy participants [2]; SAD study, 60 mg, Post-Drug", "value": "1.25 (1.02) µV"}, {"measurement": "Mean amplitude over the parietal cortex, Incidental Memory task, Novel trials", "setting": "healthy participants [2]; SAD study, 60 mg, Pre-Drug", "value": "0.49 (2.16) µV"}, {"measurement": "Mean amplitude over the parietal cortex, Incidental Memory task, Repeat trials", "setting": "healthy participants [2]; SAD study, 60 mg, Pre-Drug", "value": "0.77 (1.85) µV"}, {"measurement": "Mean amplitude over the parietal cortex, Incidental Memory task, Novel trials", "setting": "healthy participants [2]; SAD study, 120 mg, Post-Drug", "value": "1.67 (2.01) µV"}, {"measurement": "Mean amplitude over the parietal cortex, Incidental Memory task, Repeat trials", "setting": "healthy participants [2]; SAD study, 120 mg, Post-Drug", "value": "2.16 (1.69) µV"}, {"measurement": "Mean amplitude over the parietal cortex, Incidental Memory task, Novel trials", "setting": "healthy participants [2]; [3]", "value": "2.3 (1.78)^# µV"}, {"measurement": "Mean amplitude over the parietal cortex, Incidental Memory task, Repeat trials", "setting": "healthy participants [2]; [3]", "value": "2.66 (2.5)^# µV"}, {"measurement": "Mean amplitude over the parietal cortex, Incidental Memory task, Novel trials", "setting": "healthy participants [2]; SAD study, 240 mg, Post-Drug", "value": "1.76 (1.4) µV"}, {"measurement": "Mean amplitude over the parietal cortex, Incidental Memory task, Repeat trials", "setting": "healthy participants [2]; SAD study, 240 mg, Post-Drug", "value": "2.19 (1.37) µV"}, {"measurement": "Mean amplitude over the parietal cortex, Incidental Memory task, Novel trials", "setting": "healthy participants [2]; SAD study, 240 mg, Pre-Drug", "value": "1.22 (1.44) µV"}, {"measurement": "Mean amplitude over the parietal cortex, Incidental Memory task, Repeat trials", "setting": "healthy participants [2]; SAD study, 240 mg, Pre-Drug", "value": "2.14 (1.27) µV"}, {"measurement": "Mean amplitude over the parietal cortex, Incidental Memory task, Novel trials", "setting": "healthy participants [2]; SAD study, 400 mg, Post-Drug", "value": "2.45 (1.79) µV"}, {"measurement": "Mean amplitude over the parietal cortex, Incidental Memory task, Repeat trials", "setting": "healthy participants [2]; SAD study, 400 mg, Post-Drug", "value": "3.14 (2.3) µV"}, {"measurement": "Mean amplitude over the parietal cortex, Incidental Memory task, Novel trials", "setting": "healthy participants [2]; SAD study, 400 mg, Pre-Drug", "value": "2.35 (1.07) µV"}, {"measurement": "Mean amplitude over the parietal cortex, Incidental Memory task, Repeat trials", "setting": "healthy participants [2]; SAD study, 400 mg, Pre-Drug", "value": "1.91 (1.19) µV"}, {"measurement": "Mean amplitude over the parietal cortex, Incidental Memory task, Novel trials", "setting": "healthy participants [2]; SAD study, 600 mg, Post-Drug", "value": "1.98 (0.97) µV"}, {"measurement": "Mean amplitude over the parietal cortex, Incidental Memory task, Repeat trials", "setting": "healthy participants [2]; SAD study, 600 mg, Post-Drug", "value": "3.17 (1.37) µV"}, {"measurement": "Mean amplitude over the parietal cortex, Incidental Memory task, Novel trials", "setting": "healthy participants [2]; SAD study, 600 mg, Pre-Drug", "value": "2.47 (1.3) µV"}, {"measurement": "Mean amplitude over the parietal cortex, Incidental Memory task, Repeat trials", "setting": "healthy participants [2]; SAD study, 600 mg, Pre-Drug", "value": "2.74 (1.63) µV"}, {"measurement": "Mean amplitude over the parietal cortex, Incidental Memory task, Novel trials", "setting": "healthy participants [2]; [4]", "value": "1.0 (1.39) µV"}, {"measurement": "Mean amplitude over the parietal cortex, Incidental Memory task, Repeat trials", "setting": "healthy participants [2]; [4]", "value": "1.48 (1.3) µV"}, {"measurement": "Mean amplitude over the parietal cortex, Incidental Memory task, Novel trials", "setting": "healthy participants [2]; [5]", "value": "1.34 (1.09) µV"}, {"measurement": "Mean amplitude over the parietal cortex, Incidental Memory task, Repeat trials", "setting": "healthy participants [2]; [5]", "value": "1.46 (1.45) µV"}, {"measurement": "Mean amplitude over the parietal cortex, Incidental Memory task, Novel trials", "setting": "healthy participants [2]; [6]", "value": "1.04 (1.81) µV"}, {"measurement": "Mean amplitude over the parietal cortex, Incidental Memory task, Repeat trials", "setting": "healthy participants [2]; [6]", "value": "2.43 (1.59) µV"}, {"measurement": "Mean amplitude over the parietal cortex, Incidental Memory task, Novel trials", "setting": "healthy participants [2]; [7]", "value": "1.0 (0.95) µV"}, {"measurement": "Mean amplitude over the parietal cortex, Incidental Memory task, Repeat trials", "setting": "healthy participants [2]; [7]", "value": "0.88 (2.27) µV"}, {"measurement": "agonist properties at M1", "setting": "M1 mAChR", "value": "devoid of agonist properties; also recorded: lack of direct orthosteric agonism of M1 receptors"}]}]}
